Tested on: hepatocytes
Experiment: Seq-Well scRNA-Seq of hepatocytes after APAP overdose (signature scores, DEG vs untreated)
Format: in vivo, mouse

## CC(=O)Nc1ccc(O)cc1 [APAP, acetaminophen]
A96 vs untreated (UT)
  Slc25a10 avg_logFC: 0.2508
  Slc25a10 pct.1: 0.701
  Slc25a13 avg_logFC: 0.2573
  Slc25a13 pct.1: 0.786
  Slc25a20 avg_logFC: 0.3215
  Slc25a20 pct.1: 0.671
  Slc25a47 avg_logFC: 0.2777
  Slc25a47 pct.1: 0.96
  Slc27a2 avg_logFC: 0.3931
  Slc27a2 pct.1: 0.988
  Slc27a5 avg_logFC: 0.2567
  Slc27a5 pct.1: 0.958
  Slc40a1 avg_logFC: 0.336
  Slc40a1 pct.1: 0.551
  Slco1a4 avg_logFC: 0.4652
  Slco1a4 pct.1: 0.507
  Snord13 avg_logFC: 0.2659
  Snord13 pct.1: 0.386
  Snord118 avg_logFC: 0.5783
  Snord118 pct.1: 0.564
  St3gal5 avg_logFC: 0.3862
  St3gal5 pct.1: 0.71
  Sult1a1 avg_logFC: 0.522
  Sult1a1 pct.1: 0.881
  Sult1d1 avg_logFC: 0.4421
  Sult1d1 pct.1: 0.855
  Tat avg_logFC: 0.2529
  Tat pct.1: 0.981
  Tgoln1 avg_logFC: 0.3801
  Tgoln1 pct.1: 0.756
  Tmbim6 avg_logFC: 0.2624
  Tmbim6 pct.1: 0.988
  Tmed5 avg_logFC: 0.3754
  Tmed5 pct.1: 0.714
  Tmem106b avg_logFC: 0.3285
  Tmem106b pct.1: 0.727
  Tob1 avg_logFC: 0.3731
  Tob1 pct.1: 0.649
  Trp53inp1 avg_logFC: 0.3647
  Trp53inp1 pct.1: 0.551
  Tsc22d3 avg_logFC: 0.3425
  Tsc22d3 pct.1: 0.534
  Ttpa avg_logFC: 0.6266
  Ttpa pct.1: 0.98
  Ttr avg_logFC: 0.3459
  Ttr pct.1: 1
  Ubc avg_logFC: 0.3578
  Ubc pct.1: 0.968
  Ubr3 avg_logFC: 0.2529
  Ubr3 pct.1: 0.585
  Uhrf1bp1l avg_logFC: 0.2559
  Uhrf1bp1l pct.1: 0.415
  Upp2 avg_logFC: −0.2859
  Upp2 pct.1: 0.545
  Uroc1 avg_logFC: 0.3074
  Uroc1 pct.1: 0.726
  Wbp1l avg_logFC: 0.3456
  Wbp1l pct.1: 0.789
  Zfp36l1 avg_logFC: 0.3298
  Zfp36l1 pct.1: 0.601
  Zfp91 avg_logFC: 0.3741
  Zfp91 pct.1: 0.693
  Zfp683 avg_logFC: 0.3027
  Zfp683 pct.1: 0.476
  mt-Co1 avg_logFC: −0.8459
  mt-Co1 pct.1: 0.983
  mt-Co2 avg_logFC: −1.033
  mt-Co2 pct.1: 0.313
  mt-Co3 avg_logFC: −1.046
  mt-Co3 pct.1: 0.213
  mt-Cytb avg_logFC: −0.7105
  mt-Cytb pct.1: 0.99
  mt-Nd1 avg_logFC: −0.5843
  mt-Nd1 pct.1: 0.996
  mt-Nd2 avg_logFC: −0.7197
  mt-Nd2 pct.1: 0.994
  mt-Nd4 avg_logFC: −0.8488
  mt-Nd4 pct.1: 0.986
  mt-Nd5 avg_logFC: −0.573
  mt-Nd5 pct.1: 0.964
  mt-Rnr1 avg_logFC: −0.3398
  mt-Rnr1 pct.1: 1
  mt-Rnr2 avg_logFC: −0.3332
  mt-Rnr2 pct.1: 1
  mt-Tp avg_logFC: 0.3085
  mt-Tp pct.1: 0.329
APAP composite vs UT
  Acaa1b avg_logFC: −0.8508
  Agt avg_logFC: 0.5205
  Ahsg avg_logFC: 0.2925
  Akr1c6 avg_logFC: −1.586
  Ang avg_logFC: 0.7089
  Angptl3 avg_logFC: 0.7089
  Apoa2 avg_logFC: −0.5455
  Apoc1 avg_logFC: −0.8713
  Apoc2 avg_logFC: 0.7821
  Apoe avg_logFC: −0.4213
  Apoh avg_logFC: 0.4118
  Cdo1 avg_logFC: 0.517
  Ces1c avg_logFC: 0.4668
  Chchd1 avg_logFC: 0.7207
  Chchd10 avg_logFC: 0.7207
  Cp avg_logFC: 0.4362
  Cyb5 avg_logFC: −0.7102
  Cyp4a10 avg_logFC: 1.135
  Cyp4a14 avg_logFC: 1.704
  Fabp1 avg_logFC: −1.016
  Fga avg_logFC: 0.8285
  Fgb avg_logFC: 0.745
  Fgg avg_logFC: 0.6805
  Fgl1 avg_logFC: 0.8649
  Fth1 avg_logFC: 0.3784
  Gclc avg_logFC: 1.903
  Gm13775 avg_logFC: −1.078
  Gm15564 avg_logFC: 1.821
  Gm24601 avg_logFC: 0.9844
  Gm26924 avg_logFC: 1.419
  Gpx1 avg_logFC: −0.7686
  Grip2 avg_logFC: 0.8779
  Hbb-bs avg_logFC: 2.862
  Hilpda avg_logFC: 0.7786
  Hmgcs2 avg_logFC: 0.6293
  Hmox1 avg_logFC: 1.348
  Hrg avg_logFC: 0.5189
  Igfbp4 avg_logFC: 0.4353
  Lars2 avg_logFC: 1.711
  Mat1a avg_logFC: 1
  Mfsd2a avg_logFC: 0.6661
  Mt1 avg_logFC: 2.388
  Mt2 avg_logFC: 2.063
  Mup3 avg_logFC: −0.8062
  Mup5 avg_logFC: −1.371
  Mup6 avg_logFC: −2.032
  Mup7 avg_logFC: −1.116
  Mup9 avg_logFC: −2.004
  Mup11 avg_logFC: −3.214
  Mup12 avg_logFC: −1.27
  Mup15 avg_logFC: −1.316
  Mup16 avg_logFC: −1.602
  Mup17 avg_logFC: −2.354
  Mup18 avg_logFC: −1.727
  Mup19 avg_logFC: −2.396
  Mup21 avg_logFC: −1.008
  Ndrg2 avg_logFC: 0.4122
  Nudt7 avg_logFC: −1.564
  Ppl avg_logFC: 0.8798
  Rbp4 avg_logFC: 0.3014
  Retsat avg_logFC: 0.6813
  S100a8 avg_logFC: 1.128
  S100a9 avg_logFC: 1.343
  Saa1 avg_logFC: −1.078
  Selenbp2 avg_logFC: −1.19
  Sephs2 avg_logFC: 0.89
  Sepp1 avg_logFC: 0.4486
  Serpina1a avg_logFC: −0.6752
  Serpina1e avg_logFC: −0.662
  Serpina1d avg_logFC: −0.494
  Slco1a4 avg_logFC: 0.5526
  Snord118 avg_logFC: 0.6174
  Srxn1 avg_logFC: 1.878
  Sult1a1 avg_logFC: 0.5605
  Tnfrsf12a avg_logFC: 1.118
  Ttpa avg_logFC: 0.6012
  Ttr avg_logFC: −0.5306
  mt-Co1 avg_logFC: −1.433
  mt-Co2 avg_logFC: −1.397
  mt-Cytb avg_logFC: −1.571
  mt-Nd1 avg_logFC: −1.42
  mt-Nd2 avg_logFC: −1.242
  mt-Nd4 avg_logFC: −1.957
  mt-Nd5 avg_logFC: −1.384
  mt-Rnr1 avg_logFC: −0.4854
  mt-Rnr2 avg_logFC: −0.7783
  n-R5-8s1 avg_logFC: 1.253
APAP vs UT
  1-Mar logFC: −0.4778
  2-Mar logFC: −0.5599
  1110008F13Rik logFC: −0.4553
  1600014C10Rik logFC: −0.4982
  3110043O21Rik logFC: 0.2694
  8430408G22Rik logFC: −0.5021
  AA474408 logFC: 0.4364
  Aadac logFC: −0.62
  Abca1 logFC: 0.7245
  Abhd2 logFC: 0.4844
  Acox1 logFC: 0.2752
  Acsl4 logFC: 0.3147
  Acss2 logFC: −0.6201
  Adh4 logFC: −0.5269
  Adh5 logFC: −0.4914
  Adh6-ps1 logFC: −0.4185
  Adipor2 logFC: −0.4738
  Agmat logFC: −0.4718
  Ak3 logFC: 0.289
  Akr1c14 logFC: −0.5186
  Akr1c20 logFC: −0.5542
  Akr1e1 logFC: −0.2582
  Alas1 logFC: −0.4898
  Alb logFC: 0.4203
  Alcam logFC: 0.3238
  Aldh1a1 logFC: −0.4788
  Aldh3a2 logFC: −0.8342
  Aldh8a1 logFC: −0.6837
  Aox3 logFC: −0.3333

Reference: US20230053540A1, “TREATMENT OF LIVER INJURY” (Massachusetts Institute of Technology, priority 2019, published 2023)
